Patent publication US20260272920A1, “NLRP3 MODULATORS” (Zomagen Biosciences Ltd, priority 2023, published 2026)

tested on: NLRP3; test: IL-1β Assay in THP1 Cells (LPS priming + nigericin, NLRP3 activation); format: cell-based; conditions: Homo sapiens, THP-1; THP1 cells primed with 100 ng/mL LPS, 10 μM nigericin 3 hours; IL-1β released in supernatant; read-out: IL-1b (IC50)
Procedure: Example 10: IL-1β Assay in THP1 Cells
THP1 cells were primed with 100 ng/mL LPS in test medium (RPMI1640+GlutaMAX+25 mM HEPES+10% HI FBS+1% Pen/Strep) overnight at 37° C. and 5% CO2. Compounds were serially diluted in test medium and added to 200 000 cells/well for 1 hour at 37° C. and 5% CO2. After 1 hour, nigericin was added at 10 μM final concentration and incubated in at 37° C. and 5% CO2 for 3 hours to induce NLRP3 activation. IL-1β released from THP1 was detected in the cell supernatant by the ELLA (Simple Plex, Bio-Techne) Human IL-1β Immunoassays. The average of the positive control (LPS+nigericin) and the negative control (LPS alone) was calculated. The % inhibition of each test well was calculated by the following formula: % inhibition per well=[(average of positive control−single well signal value)/(average of positive control−average of negative control)]*100%. The compound inhibition curve was fitted by using a four-parameter logistic dose response equation: compound concentration was converted into logarithm base 10, and its concentration and % inhibition is imported into Graphpad prism software.

IC50	Compound
< 500 nM	CCN1CCCC(C(O)c2cc(C)c(-c3ccc4c(F)c[nH]c4c3)nn2)C1 (stereo not drawn) [Compound 10, (1-ethylpiperidin-3-yl)(6-(3-fluoro-1H-indol-6-yl)-5-methylpyridazin-3-yl)methanol]
< 500 nM	CCN1CCCC(C(O)c2cc(C)c(-c3ccc4cc[nH]c4c3)nn2)C1 (stereo not drawn) [Compound 12, (6-(1H-indol-6-yl)-5-methylpyridazin-3-yl) (1-ethylpiperidin-3-yl) methanol]
< 500 nM	Cc1cc(C(O)C2CCCN(C)C2)nnc1-c1ccc2occc2c1 (stereo not drawn) [Compound 16, (6-(benzofuran-5-yl)-5-methylpyridazin-3-yl)(1-methylpiperidin-3-yl)methanol]
< 500 nM	CCN1CCCC(C(O)c2cc(C)c(-c3ccc4occc4c3)nn2)C1 (stereo not drawn) [Compound 17, (6-(benzofuran-5-yl)-5-methylpyridazin-3-yl)(1-ethylpiperidin-3-yl)methanol]
500 to 3000 nM	Cc1cc(C(O)C2CCCN(C)C2)nnc1-c1ccc(C(F)(F)F)cc1CC(F)(F)F (stereo not drawn) [Compound 21, (5-methyl-6-(2-(2,2,2-trifluoroethyl)-4-(trifluoromethyl)phenyl)pyridazin-3-yl)(1-methylpiperidin-3-yl)methanol]
500 to 3000 nM	Cc1cc([C@H](O)[C@@H]2CCCN(C)C2)nnc1-c1ccc(C(F)(F)F)cc1 [Compound 28, (R)-(5-methyl-6-(4-(trifluoromethyl)phenyl)pyridazin-3-yl)((R)-1-methylpiperidin-3-yl)methanol]
< 500 nM	CCN1CCC[C@@H]([C@@H](O)c2cc(C)c(-c3ccc(C(F)(F)F)cc3)nn2)C1 [Compound 29, (R)-((R)-1-ethylpiperidin-3-yl)(5-methyl-6-(4-(trifluoromethyl)phenyl)pyridazin-3-yl)methanol]
< 500 nM	Cc1cc([C@H](O)[C@@H]2CCCN(C)C2)nnc1-c1ccc(C(F)(F)F)cc1OC(F)F [Compound 31, (R)-(6-(2-(difluoromethoxy)-4-(trifluoromethyl)phenyl)-5-methylpyridazin-3-yl)((R)-1-methylpiperidin-3-yl)methanol]
< 500 nM	CCN1CCC[C@@H]([C@@H](O)c2cc(C)c(-c3ccc(C(F)(F)F)cc3OC(F)F)nn2)C1 [Compound 33, (R)-(6-(2-(difluoromethoxy)-4-(trifluoromethyl)phenyl)-5-methylpyridazin-3-yl)((R)-1-ethylpiperidin-3-yl)methanol]
